ChEMBL document CHEMBL4425144, “Discovery and Structural Optimization of N5-Substituted 6,7-Dioxo-6,7-dihydropteridines as Potent and Selective Epidermal Growth Factor Receptor (EGFR) Inhibitors against L858R/T790M Resistance Mutation” (J Med Chem, 2016)
In brackets after ≈: the same amount, converted by molar mass.

How the values were obtained:
[1] = biological target: Epidermal growth factor receptor (Homo sapiens, UniProt P00533, L858R/T790M); assay: Inhibition of EGFR kinase domain L858R/T790M mutant (unknown origin) expressed using baculovirus expression system incubated for 1 hr using Poly(Glu,Tyr) 4:1 by ELISA method
[2] = Dissociation constant, pKa of the compound by Sirius T3 based assay; assay type: physicochemical
A-431 [3] = assay: Antiproliferative activity against human A431 cells incubated for 72 hrs by SRB assay; assay type: functional, cell-based; details: A-431, 72 h
[4] = biological target: Epidermal growth factor receptor (Homo sapiens, UniProt P00533); assay: Inhibition of wild type EGFR kinase domain (unknown origin) expressed using baculovirus expression system incubated for 1 hr using Poly(Glu,Tyr) 4:1 by ELISA method
NCI-H1975 = assay: Antiproliferative activity against human NCI-H1975 cells incubated for 72 hrs by SRB assay; assay type: functional, cell-based; details: NCI-H1975, 72 h
[5] = Thermodynamic solubility of the compound in 0.1M PBS buffer at pH 7.4 by UV-visible spectrophotometry; assay type: physicochemical; details: read-out: Therm_solubility
A-431 [6] = assay: Antitumor activity against human A431 cells xenografted in BALB/c mouse assessed as inhibition of tumor growth at 25 mg/kg, po qd for 14 consecutive days; assay type: functional; details: A-431, po, read-out: TGI

Chain of Epidermal growth factor receptor (Homo sapiens, UniProt P00533, L858R/T790M) (P00533 25-1210 T790M/L858R limits assumed): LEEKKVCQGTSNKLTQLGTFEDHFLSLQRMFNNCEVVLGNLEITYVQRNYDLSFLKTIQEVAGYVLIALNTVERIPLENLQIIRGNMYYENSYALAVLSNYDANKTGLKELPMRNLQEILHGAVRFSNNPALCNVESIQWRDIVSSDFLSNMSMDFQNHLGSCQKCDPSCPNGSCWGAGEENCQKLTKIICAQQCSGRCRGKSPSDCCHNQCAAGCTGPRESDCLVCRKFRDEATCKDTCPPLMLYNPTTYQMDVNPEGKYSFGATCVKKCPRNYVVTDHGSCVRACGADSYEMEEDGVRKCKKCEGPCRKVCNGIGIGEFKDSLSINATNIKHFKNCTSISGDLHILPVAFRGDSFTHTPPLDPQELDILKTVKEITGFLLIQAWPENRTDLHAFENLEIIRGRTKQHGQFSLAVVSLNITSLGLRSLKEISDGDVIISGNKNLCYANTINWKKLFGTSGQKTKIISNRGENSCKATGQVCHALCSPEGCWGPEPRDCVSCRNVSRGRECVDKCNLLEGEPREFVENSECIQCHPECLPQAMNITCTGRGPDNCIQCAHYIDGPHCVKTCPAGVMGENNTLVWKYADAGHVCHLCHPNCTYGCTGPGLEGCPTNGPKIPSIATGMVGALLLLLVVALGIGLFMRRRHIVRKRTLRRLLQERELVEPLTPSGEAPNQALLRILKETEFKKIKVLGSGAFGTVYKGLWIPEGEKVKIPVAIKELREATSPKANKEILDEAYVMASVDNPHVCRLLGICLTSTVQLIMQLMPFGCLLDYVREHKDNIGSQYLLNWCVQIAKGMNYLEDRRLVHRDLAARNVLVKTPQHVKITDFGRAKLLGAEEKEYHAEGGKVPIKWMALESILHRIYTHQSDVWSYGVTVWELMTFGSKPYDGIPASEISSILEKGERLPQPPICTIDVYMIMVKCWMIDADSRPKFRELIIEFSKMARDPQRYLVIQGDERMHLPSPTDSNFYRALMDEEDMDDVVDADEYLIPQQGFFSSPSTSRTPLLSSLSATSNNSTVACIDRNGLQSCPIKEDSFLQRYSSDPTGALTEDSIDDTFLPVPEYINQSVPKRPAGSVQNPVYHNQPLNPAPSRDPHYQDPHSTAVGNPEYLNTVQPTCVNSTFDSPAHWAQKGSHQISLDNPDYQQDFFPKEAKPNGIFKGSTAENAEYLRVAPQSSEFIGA
Chain of Epidermal growth factor receptor (Homo sapiens, UniProt P00533) (P00533 whole entry, the tested form may be a part): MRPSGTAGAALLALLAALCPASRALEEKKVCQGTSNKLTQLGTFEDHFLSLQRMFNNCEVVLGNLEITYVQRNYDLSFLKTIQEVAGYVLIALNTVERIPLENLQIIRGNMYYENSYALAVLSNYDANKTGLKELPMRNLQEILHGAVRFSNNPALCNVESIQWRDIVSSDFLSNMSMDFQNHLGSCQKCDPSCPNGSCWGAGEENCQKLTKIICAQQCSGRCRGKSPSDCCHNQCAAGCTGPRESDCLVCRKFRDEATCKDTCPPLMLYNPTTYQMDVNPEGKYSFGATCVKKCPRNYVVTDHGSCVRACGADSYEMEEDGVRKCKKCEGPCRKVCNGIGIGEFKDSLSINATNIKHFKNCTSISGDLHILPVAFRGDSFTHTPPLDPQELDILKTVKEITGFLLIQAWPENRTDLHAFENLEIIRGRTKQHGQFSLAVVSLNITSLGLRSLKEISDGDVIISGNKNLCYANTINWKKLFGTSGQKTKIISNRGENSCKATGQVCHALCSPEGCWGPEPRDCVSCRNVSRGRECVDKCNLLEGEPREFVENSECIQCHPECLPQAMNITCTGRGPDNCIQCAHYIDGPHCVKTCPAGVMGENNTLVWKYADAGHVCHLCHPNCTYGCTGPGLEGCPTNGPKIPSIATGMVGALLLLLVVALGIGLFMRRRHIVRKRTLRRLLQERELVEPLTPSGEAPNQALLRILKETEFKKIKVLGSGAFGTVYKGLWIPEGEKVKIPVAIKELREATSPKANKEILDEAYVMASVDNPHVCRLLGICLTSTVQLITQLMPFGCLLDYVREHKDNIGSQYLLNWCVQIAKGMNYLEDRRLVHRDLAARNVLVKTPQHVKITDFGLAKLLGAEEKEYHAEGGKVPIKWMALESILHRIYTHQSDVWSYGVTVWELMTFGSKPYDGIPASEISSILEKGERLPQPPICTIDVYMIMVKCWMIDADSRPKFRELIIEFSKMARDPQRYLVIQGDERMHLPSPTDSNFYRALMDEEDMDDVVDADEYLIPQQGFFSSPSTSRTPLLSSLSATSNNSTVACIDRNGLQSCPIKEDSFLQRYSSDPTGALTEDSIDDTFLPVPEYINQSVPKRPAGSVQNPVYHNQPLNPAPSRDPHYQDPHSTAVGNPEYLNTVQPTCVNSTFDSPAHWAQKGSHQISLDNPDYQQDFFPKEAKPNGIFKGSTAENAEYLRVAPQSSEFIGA

Compound	IC50 [1] [nM]	pKa [2]	IC50 (A-431 [3]) [nM]	IC50 [4] [nM]	IC50 (NCI-H1975) [nM]	solubility thermodynamic [5] [µg/mL]	inhibition in vivo at 25 mg/kg (A-431 [6]) [%]
C=CC(=O)Nc1cccc(-n2c(=O)c(=O)n(C)c3cnc(Nc4ccc(N5CCN(C)CC5)cc4OC)nc32)c1	4.7	7.3	> 10000	474	1770	392 (≈ 722 µM)	
C=CC(=O)Nc1cccc(-n2c(=O)c(=O)[nH]c3cnc(Nc4ccc(N5CCN(C)CC5)cc4OC)nc32)c1	2.5	7.8	> 10000	2.8	> 10000	839 (≈ 1590 µM)	
C=CC(=O)Nc1cccc(-n2c(=O)c(=O)n(C(C)C)c3cnc(Nc4ccc(OCCN(C)C)cc4OC)nc32)c1	143	8.8	1500	68	415	437 (≈ 781 µM)	
CN(C)C/C=C/C(=O)Nc1cc2c(Nc3ccc(F)c(Cl)c3)ncnc2cc1O[C@H]1CCOC1 [AFATINIB]							94
C=CC(=O)Nc1cccc(-n2c(=O)c(=O)n(CC)c3cnc(Nc4ccc(N5CCN(C)CC5)cc4OC)nc32)c1	1.2	7.4	8820	81	126	< 10	
C=CC(=O)Nc1cccc(-n2c(=O)c(=O)n(C(C)C)c3cnc(Nc4ccc(N5CCN(C)CC5)c(OC)c4)nc32)c1	1.3	8.4	669	8.6	213	298 (≈ 522 µM)	
C=CC(=O)Nc1cccc(-n2c(=O)c(=O)n(C(C)C)c3cnc(Nc4ccc(N5CCN(C)CC5)c(C)c4)nc32)c1	1.5	8.1	309	1.4	151	190 (≈ 343 µM)	
C=CC(=O)Nc1cccc(-n2c(=O)c(=O)n(CCC)c3cnc(Nc4ccc(N5CCN(C)CC5)cc4OC)nc32)c1	0.6	7.5	2140	2.2	119	< 10	
C=CC(=O)Nc1cccc(-n2c(=O)c(=O)n(C(C)C)c3cnc(Nc4ccc(N(C)CCN(C)C)cc4OC)nc32)c1	17	8.9	1530	223	440	1620 (≈ 2830 µM)	
C=CC(=O)Nc1cccc(-n2c(=O)c(=O)n(C(C)C)c3cnc(Nc4ccc(N5CCC(N6CCN(C)CC6)CC5)cc4OC)nc32)c1	7.8	8.8	2260	28	1190	109 (≈ 167 µM)	
